In the supplement of paper PMC11061612:

Assays:
NY (Osteosarcoma) = experiment: Bliss excess, mean over the matrix (fraction); higher = more synergy
How it was run: (§1)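 Cell lines in DMEM/F12 or RPMI with 10% FBS were plated in 1536-well plates, held 24 hours at 37°C, 5% CO2, then given two-drug dose matrices for 72 hours (DMSO typically 0.2%). Viability was read by CellTiter-Glo 2.0 luminescence and scaled as inhibition from 0 (vehicle wells) to 1 (blank wells). Combination Emax is the second-highest inhibition in the matrix; Bliss excess is observed combination effect minus expected EA + EB − EA·EB, EA and EB being single-agent effects.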

[1] = test system: NCI-H64 (Small Cell Lung Carcinoma); experiment: as above
How it was run: as §1

[2] = test system: VCaP (Prostate Carcinoma); experiment: as above
How it was run: as §1

[3] = test system: TT (Thyroid Gland Carcinoma); experiment: as above
How it was run: as §1

[4] = test system: PANC-10-05 (Pancreatic Carcinoma); experiment: as above
How it was run: as §1

[5] = test system: HCC1954 (Breast Carcinoma); experiment: as above
How it was run: as §1

[6] = test system: ONS-76 (Other Solid Carcinomas); experiment: as above
How it was run: as §1

[7] = test system: BICR22 (Oral Cavity Carcinoma); experiment: as above
How it was run: as §1

[8] = test system: KARPAS-422 (B-Cell Non-Hodgkin's Lymphoma); experiment: as above
How it was run: as §1

LN-405 (Glioblastoma) = experiment: as above
How it was run: as §1

U-2-OS (Osteosarcoma) = experiment: as above
How it was run: as §1

[9] = test system: NCI-H1666 (Lung Adenocarcinoma); experiment: as above
How it was run: as §1

NCI-H2591 (Mesothelioma) = experiment: as above
How it was run: as §1

[10] = test system: NCI-H2066 (Squamous Cell Lung Carcinoma); experiment: as above
How it was run: as §1

FU97 (Gastric Carcinoma) = experiment: as above
How it was run: as §1

[11] = test system: CCK-81 (Colorectal Carcinoma); experiment: as above
How it was run: as §1

IGR-37 (Melanoma) [12] = experiment: as above
How it was run: as §1

[13] = test system: COLO-320-HSR (Colorectal Carcinoma); experiment: as above
How it was run: as §1

[14] = test system: NCI-H1581 (Non-Small Cell Lung Carcinoma); experiment: as above
How it was run: as §1

IGR-37 (Melanoma) [15] = experiment: combination Emax (second highest fraction inhibited in the dose matrix, 72 h); higher = more inhibition; extreme values may be limits of the assay
How it was run: as §1
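For Bliss excess, mean over the matrix in this document: after 72 h of two-drug dosing.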

CS(=O)(=O)CCNCc1ccc(-c2ccc3ncnc(Nc4ccc(OCc5cccc(F)c5)c(Cl)c4)c3c2)o1 [Lapatinib] + NC1(c2ccc(-c3nc4ccn5c(=O)[nH]nc5c4cc3-c3ccccc3)cc2)CCC1 [MK-2206] (first compound max 10 µM, 7x7, partner max 10 µM)
Bliss excess (NY (Osteosarcoma)): 0.0087 | Bliss excess [1]: 0.022 | Bliss excess [2]: -0.0421 | Bliss excess [3]: -0.0043 | Bliss excess [4]: -0.0218 | Bliss excess [5]: 0.0952 | Bliss excess [6]: 0.0048 | Bliss excess [7]: 0.0346 | Bliss excess [8]: -0.0122 | Bliss excess (LN-405 (Glioblastoma)): -0.0277 | Bliss excess (U-2-OS (Osteosarcoma)): -0.029 | Bliss excess [9]: -0.0093 | Bliss excess (NCI-H2591 (Mesothelioma)): -0.0408 | Bliss excess [10]: 0.0521 | Bliss excess (FU97 (Gastric Carcinoma)): 0.0294 | Bliss excess [11]: 0.0908 | Bliss excess (IGR-37 (Melanoma) [12]): 0.0428 | Bliss excess [13]: 0.0102 | Bliss excess [14]: -0.0046 | combination Emax (IGR-37 (Melanoma) [15]): 0.901
